Assay results reported in BindingDB's records for doi:10.1111/cbdd.12779 (Ferdowsi University of Mashhad, 2016).
pIC50: −log10 of the molar value. Values joined by “and” are separate entries in the source; they are usually repeats but may differ in a detail not shown here. Equal entries are not always repeated.

Biological target: T1, Seed linoleate 13S-lipoxygenase-1 (Glycine max, UniProt P08170)
T1 sequence (P08170 whole entry): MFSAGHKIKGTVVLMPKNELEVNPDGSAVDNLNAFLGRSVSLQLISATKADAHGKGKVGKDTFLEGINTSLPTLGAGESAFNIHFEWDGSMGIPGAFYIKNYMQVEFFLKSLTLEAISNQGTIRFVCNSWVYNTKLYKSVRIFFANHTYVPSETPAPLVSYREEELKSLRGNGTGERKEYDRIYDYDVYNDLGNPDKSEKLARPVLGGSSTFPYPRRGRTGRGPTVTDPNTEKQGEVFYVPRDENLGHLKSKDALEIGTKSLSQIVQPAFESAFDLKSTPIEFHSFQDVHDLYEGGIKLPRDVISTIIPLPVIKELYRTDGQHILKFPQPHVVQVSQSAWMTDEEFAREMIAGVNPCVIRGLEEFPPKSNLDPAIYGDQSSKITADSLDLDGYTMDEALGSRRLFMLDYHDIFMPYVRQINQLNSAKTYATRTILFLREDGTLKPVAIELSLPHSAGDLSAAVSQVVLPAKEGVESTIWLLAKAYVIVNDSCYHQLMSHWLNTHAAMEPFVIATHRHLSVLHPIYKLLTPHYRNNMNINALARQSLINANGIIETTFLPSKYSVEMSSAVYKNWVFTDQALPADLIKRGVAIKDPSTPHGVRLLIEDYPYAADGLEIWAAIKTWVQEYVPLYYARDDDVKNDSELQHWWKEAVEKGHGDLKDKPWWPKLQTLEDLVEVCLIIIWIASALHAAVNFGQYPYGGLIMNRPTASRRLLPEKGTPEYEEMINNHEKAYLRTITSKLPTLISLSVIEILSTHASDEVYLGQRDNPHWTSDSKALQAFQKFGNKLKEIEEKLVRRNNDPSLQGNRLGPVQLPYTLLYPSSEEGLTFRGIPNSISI
Assay: Lipo-oxygenase Inhibitory Assay
Details: pH 7; 25 °C
Method: Solution A was 50 mm DMAB in an 100 mm phosphate buffer (pH 7.0). Solution B was a mixture of 10 mm MBTH (3 mL) and hemoglobin (5 mg/mL, 3 mL) in 50 mm phosphatebuffer at pH 5.0 (25 mL). A linoleic acid solution was prepared by mixing 5 mg of linoleic acid with 50 mg Tween-20 in 3 mL water and then diluted with KOH 100 mmto a final volume of 5 mL. In the standard assay, the sample in ethanol (25 uL), SLO (EC 1,13,11,12; 4000 units/mL; 25 uL) and phosphate buffer, pH 7.0 (50 mm; 900 uL), were mixed in a test-tube and preincubation was carried out for 5 min at room temperature. A control test was done with the same volume of ethanol. Afterthe preincubation, linoleic acid solution (50 uL) was added to start the peroxidation reaction, and, 7 min later, solution A (270 uL) and then solution B (130 uL) were added to start the color formation. Further, 5 min later, 200 uL of a 2% SDS solution was added to terminate the reaction.

Compound	pIC50
C=CCc1cc(OC)cc(OC)c1 [1-Allyl-3,5-dimethoxybenzene (2)]	4.36
COc1cc(C)cc(OC)c1C/C=C(\C)CCC=C(C)C [(E)-2-(3,7-Dimethylocta-2,6-dien-1-yl)-1,3-dimethoxy-5-methylbenzene (10)]	5.28
C=CCc1ccc(OC)cc1OC [1-Allyl-2,4-dimethoxybenzene (5)]	4.50 and 3.99
C=CCc1cccc(OC)c1OC [1,2-dimethoxy-3-(prop-2-en-1-yl)benzene (3)]	3.89
C=CCc1ccc(OC)c(OC)c1 [METHYLEUGENOL]	4.48
C=CCc1c(OC)cccc1OC [2-Allyl-1,3-dimethoxybenzene (6)]	4.27
COc1cc(C)cc(OC)c1C/C=C(\C)CC/C=C(\C)CCC=C(C)C [1,3-Dimethoxy-5-methyl-2-((2E,6E)-3,7,11-trimethyldodeca-2,6,10-trien-1-yl)benzene (11)]	6.28
C=CCc1c(OC)cc(C)cc1OC [2-Allyl-1,3-dimethoxy-5-methylbenzene (8)]	4.52
C=CCc1c(OC)cc(OC)cc1OC [2-Allyl-1,3,5-trimethoxybenzene (7)]	4.08
Cc1nc(N2CCN(C)CC2)nc2c1Nc1ccccc1S2 [4-MMPB]	4.65
COc1cc(C)cc(OC)c1CC=C(C)C [1,3-Dimethoxy-5-methyl-2-(3-methylbut-2-en-1-yl)benzene (9)]	5.12
